Publication PMC8160793, “Potent Antimicrobial and Antibiofilm Activities of Feleucin-K3 Analogs Modified by α-(4-Pentenyl)-Ala against Multidrug-Resistant Bacteria” (Biomolecules, 2021)
≈ marks a conversion by molar mass, not a printed value. Read-outs that look alike come from different tables or passages of the source. One block for each compound: values may come before it. Square brackets hold non-standard residues; d marks the D form. Ends that are not written are not given here. Peptide text beside a SMILES is read from it. ξ: configuration not given here. ξαMeGly(pent-4-enyl) = C=CCCCC(C)(N)C(=O)O

Assays:
E. coli ATCC 25922 = format: cell-based
Experimental: (§1) The minimum inhibitory concentration (MIC) of the Feleucin-K3 analogs was tested by the broth microdilution method. Sensitive bacteria and drug-resistant bacteria were diluted to 1 × 10^6 CFU/mL, according to the McFarland standards. Bacterial suspension and peptide solutions (8–128 μg/mL) were incubated at 37 °C for 18 h. The minimum concentration without obvious bacterial growth was the MIC of the peptides. The stability of the analogs in a physiological salt environment was also investigated. In brief, salt powder (450-mM NaCl) was dissolved in deionized water, and the following investigational steps were the same as those described before. The above steps were repeated several times, until the same value was obtained three times.

MRSA 113 = format: cell-based, Staphylococcus aureus; conditions: 113, 18 h
Experimental: as §1

MRSA 23 = format: cell-based, Staphylococcus aureus; conditions: 23, 18 h
Experimental: as §1

MRSA 48 = format: cell-based, Staphylococcus aureus; conditions: 48, 18 h
Experimental: as §1

MRSA 51 = format: cell-based, Staphylococcus aureus; conditions: 51, 18 h
Experimental: as §1

MRSA 52 = format: cell-based, Staphylococcus aureus; conditions: 52, 18 h
Experimental: as §1

MRSA 54 = format: cell-based, Staphylococcus aureus; conditions: 54, 18 h
Experimental: as §1

MRSA 71 = format: cell-based, Staphylococcus aureus; conditions: 71, 18 h
Experimental: as §1

MRSA 74 = format: cell-based, Staphylococcus aureus; conditions: 74, 18 h
Experimental: as §1

MRSA 75 = format: cell-based, Staphylococcus aureus; conditions: 75, 18 h
Experimental: as §1

MRSA 936 = format: cell-based, Staphylococcus aureus; conditions: 936, 18 h
Experimental: as §1

MRSA ATCC 33591 = format: cell-based, Staphylococcus aureus; conditions: ATCC 33591, 18 h
Experimental: as §1

S. aureus 725 = format: cell-based, Staphylococcus aureus; conditions: 725, 18 h
Experimental: as §1

S. aureus 794 = format: cell-based, Staphylococcus aureus; conditions: 794, 18 h
Experimental: as §1

S. aureus ATCC 25923 = format: cell-based, Staphylococcus aureus
Experimental: as §1

P. aeruginosa ATCC 27853 = format: cell-based, Pseudomonas aeruginosa
Experimental: as §1

A. baumannii 51243 = format: cell-based, Acinetobacter baumannii; conditions: 51243, 18 h
Experimental: as §1

A. baumannii 5444 = format: cell-based, Acinetobacter baumannii; conditions: 5444, 18 h
Experimental: as §1

A. baumannii 822144 = format: cell-based, Acinetobacter baumannii; conditions: 822144, 18 h
Experimental: as §1

A. baumannii 8309 = format: cell-based, Acinetobacter baumannii; conditions: 8309, 18 h
Experimental: as §1

A. baumannii 91105 = format: cell-based, Acinetobacter baumannii; conditions: 91105, 18 h
Experimental: as §1

A. baumannii 91152 = format: cell-based, Acinetobacter baumannii; conditions: 91152, 18 h
Experimental: as §1

A. baumannii 91199 = format: cell-based, Acinetobacter baumannii; conditions: 91199, 18 h
Experimental: as §1

A. baumannii 91810 = format: cell-based, Acinetobacter baumannii; conditions: 91810, 18 h
Experimental: as §1

A. baumannii 91869 = format: cell-based, Acinetobacter baumannii; conditions: 91869, 18 h
Experimental: as §1

A. baumannii 91944 = format: cell-based, Acinetobacter baumannii; conditions: 91944, 18 h
Experimental: as §1

A. baumannii 9234 = format: cell-based, Acinetobacter baumannii; conditions: 9234, 18 h
Experimental: as §1

A. baumannii 92359 = format: cell-based, Acinetobacter baumannii; conditions: 92359, 18 h
Experimental: as §1

A. baumannii 9236 = format: cell-based, Acinetobacter baumannii; conditions: 9236, 18 h
Experimental: as §1

A. baumannii 9331 = format: cell-based, Acinetobacter baumannii; conditions: 9331, 18 h
Experimental: as §1

A. baumannii 9336 = format: cell-based, Acinetobacter baumannii; conditions: 9336, 18 h
Experimental: as §1

A. baumannii 97830 = format: cell-based, Acinetobacter baumannii; conditions: 97830, 18 h
Experimental: as §1

A. baumannii 98110 = format: cell-based, Acinetobacter baumannii; conditions: 98110, 18 h
Experimental: as §1

A. baumannii 9828 = format: cell-based, Acinetobacter baumannii; conditions: 9828, 18 h
Experimental: as §1

A. baumannii 9840 = format: cell-based, Acinetobacter baumannii; conditions: 9840, 18 h
Experimental: as §1

A. baumannii 9896 = format: cell-based, Acinetobacter baumannii; conditions: 9896, 18 h
Experimental: as §1

A. baumannii ATCC 19606 = format: cell-based, Acinetobacter baumannii
Experimental: as §1

[1] = broth microdilution, 1 × 10^6 CFU/mL, 37 °C, 18 h

- MIC, E. coli ATCC 25922 (E. coli ATCC 25922; ATCC 25922, 18 h): 8 µg/mL (≈ 7.01 µM)
- MIC, MRSA 113 (MRSA 113): 4 µg/mL (≈ 3.51 µM)
- MIC, MRSA 23 (MRSA 23): 4 µg/mL (≈ 3.51 µM)
- MIC, MRSA 48 (MRSA 48): 4 µg/mL (≈ 3.51 µM)
- MIC, MRSA 51 (MRSA 51): 4 µg/mL (≈ 3.51 µM)
- MIC, MRSA 52 (MRSA 52): 8 µg/mL (≈ 7.01 µM)
- MIC, MRSA 54 (MRSA 54): 4 µg/mL (≈ 3.51 µM)
- MIC, MRSA 71 (MRSA 71): 8 µg/mL (≈ 7.01 µM)
- MIC, MRSA 74 (MRSA 74): 4 µg/mL (≈ 3.51 µM)
- MIC, MRSA 75 (MRSA 75): 4 µg/mL (≈ 3.51 µM)
- MIC, MRSA 936 (MRSA 936): 4 µg/mL (≈ 3.51 µM)
- MIC, MRSA ATCC 33591 (MRSA ATCC 33591): 4 µg/mL (≈ 3.51 µM)
- MIC, S. aureus 725 (S. aureus 725): 4 µg/mL (≈ 3.51 µM)
- MIC, S. aureus 794 (S. aureus 794): 8 µg/mL (≈ 7.01 µM)
- MIC, S. aureus ATCC 25923 (S. aureus ATCC 25923; ATCC 25923, 18 h): 4 µg/mL (≈ 3.51 µM)
- MIC, P. aeruginosa ATCC 27853 (P. aeruginosa ATCC 27853; ATCC 27853, 18 h): 8 µg/mL (≈ 7.01 µM)
- MIC, A. baumannii 51243 (A. baumannii 51243): 4 µg/mL (≈ 3.51 µM)
- MIC, A. baumannii 5444 (A. baumannii 5444): 4 µg/mL (≈ 3.51 µM)
- MIC, A. baumannii 822144 (A. baumannii 822144): 4 µg/mL (≈ 3.51 µM)
- MIC, A. baumannii 8309 (A. baumannii 8309): 4 µg/mL (≈ 3.51 µM)
- MIC, A. baumannii 91105 (A. baumannii 91105): 4 µg/mL (≈ 3.51 µM)
- MIC, A. baumannii 91152 (A. baumannii 91152): 4 µg/mL (≈ 3.51 µM)
- MIC, A. baumannii 91199 (A. baumannii 91199): 4 µg/mL (≈ 3.51 µM)
- MIC, A. baumannii 91810 (A. baumannii 91810): 4 µg/mL (≈ 3.51 µM)
- MIC, A. baumannii 91869 (A. baumannii 91869): 4 µg/mL (≈ 3.51 µM)
- MIC, A. baumannii 91944 (A. baumannii 91944): 4 µg/mL (≈ 3.51 µM)
- MIC, A. baumannii 9234 (A. baumannii 9234): 4 µg/mL (≈ 3.51 µM)
- MIC, A. baumannii 92359 (A. baumannii 92359): 4 µg/mL (≈ 3.51 µM)
- MIC, A. baumannii 9236 (A. baumannii 9236): 4 µg/mL (≈ 3.51 µM)
- MIC, A. baumannii 9331 (A. baumannii 9331): 8 µg/mL (≈ 7.01 µM)
- MIC, A. baumannii 9336 (A. baumannii 9336): 4 µg/mL (≈ 3.51 µM)
- MIC, A. baumannii 97830 (A. baumannii 97830): 4 µg/mL (≈ 3.51 µM)
- MIC, A. baumannii 98110 (A. baumannii 98110): 4 µg/mL (≈ 3.51 µM)
- MIC, A. baumannii 9828 (A. baumannii 9828): 4 µg/mL (≈ 3.51 µM)
- MIC, A. baumannii 9840 (A. baumannii 9840): 4 µg/mL (≈ 3.51 µM)
- MIC, A. baumannii 9896 (A. baumannii 9896): 4 µg/mL (≈ 3.51 µM)
- MIC, A. baumannii ATCC 19606 (A. baumannii ATCC 19606; ATCC 19606, 18 h): 4 µg/mL (≈ 3.51 µM)
Compound: C=CCCCC(C)(NC(=O)[C@H](CC(C)C)NC(=O)[C@H](CCCCN)NC(=O)[C@H](CC(C)C)NC(=O)[C@@H](N)Cc1ccccc1)C(=O)N[C@@H](CCCCN)C(=O)N[C@@H](CCCCN)C(=O)N[C@@H](CC(C)C)C(=O)N[C@@H](CC(C)C)C(N)=O (stereo partly drawn) [Feleucin-K68] (H-FLKL[ξαMeGly(pent-4-enyl)]KKLL-NH2)

Compound: GIGKFLHSAKKFGKAFVGEIMNS [Magainin 2, reference compound]
- MIC, E. coli ATCC 25922 (E. coli ATCC 25922; [1]): 64 µg/mL
- MIC, S. aureus ATCC 25923 (S. aureus ATCC 25923; [1]): > 256 µg/mL
- MIC, P. aeruginosa ATCC 27853 (P. aeruginosa ATCC 27853; [1]): 256 µg/mL
- MIC, A. baumannii ATCC 19606 (A. baumannii ATCC 19606; [1]): 16 µg/mL

- MIC, E. coli ATCC 25922 (E. coli ATCC 25922; ATCC 25922, 18 h): >128 µg/mL
- MIC, S. aureus ATCC 25923 (S. aureus ATCC 25923; ATCC 25923, 18 h): >128 µg/mL
- MIC, P. aeruginosa ATCC 27853 (P. aeruginosa ATCC 27853; ATCC 27853, 18 h): 64 µg/mL
- MIC, A. baumannii ATCC 19606 (A. baumannii ATCC 19606; ATCC 19606, 18 h): >128 µg/mL
Compound: LKLLKKLL-NH2 [Feleucin-K63]
